Measured values published in US20050004038A1, “Bivalent inhibitors of Glutathione-S-Transferases” (priority 2003, published 2005).
Where two headings read alike, the source gives them in different places.

Tests used:
[1] = test system: human kidney 293 fibroblasts transfected with the IRES vector (no GST P1-1); experiment: Cell killing by hypericin photodynamic treatment, IRES vector control cells; type: cell-based
Description: (§1) Cells used in the assay were human kidney 293 fibroblasts transfected with the IRES vector plus and minus the coding region for human GST P1-1. Cells were cultured in DMEM supplemented with 10% FBS and 1% penicillin-streptomycin and maintained at 37° C. and 5% CO2.
(§2) Once the cells reached 80% confluency, the original media was removed and replaced with either (a) fresh media alone; (b) fresh media containing 1 uM hypericin (a porphyrin analogue employed in photodynamic cancer therapy), (c) the desired concentration of GST inhibitor IVg^, and (d) 1 μM hypericin plus the inhibitor 1 μM IVg^. The cells were incubated for a further 24 hours, in the dark, to allow the hypericin to be incorporated. The media from each plate was then removed and placed into a corresponding 15 ml centrifuge tube. This media is saved to monitor the “floater” cells that may have sloughed off during manipulations and treatment. The attached cells were washed two times with 1×PBS and fresh media is added back to the plates. The plates which were incubated overnight in the presence of hypericin were overlayed with DMEM without the phenol red indicator dye or 1×PBS supplemented with 10% FBS. […]
(§3) Following light treatment, cells were trypsinized, removed to their corresponding 15 ml tubes and maintained on ice until analyzed via flow cytometry.

[2] = test system: human kidney 293 fibroblasts overexpressing human GST P1-1; experiment: Cell killing by hypericin photodynamic treatment, GST P1-1 overexpressing cells; type: cell-based; details: GSTP cells
Description: as §1, §2, §3

[3] = target: T1, human glutathione S-transferase A1-1 (GSTA1-1) (Homo sapiens, UniProt P08263); experiment: CDNB assay of GST activity and inhibition, GST A1-1; type: biochemical; details: second value of the cell GSTP1-1/GSTA1-1, 20 nM GST
T1 construct: made in house; host or cells: E. coli
T1 sequence (P08263 1-222): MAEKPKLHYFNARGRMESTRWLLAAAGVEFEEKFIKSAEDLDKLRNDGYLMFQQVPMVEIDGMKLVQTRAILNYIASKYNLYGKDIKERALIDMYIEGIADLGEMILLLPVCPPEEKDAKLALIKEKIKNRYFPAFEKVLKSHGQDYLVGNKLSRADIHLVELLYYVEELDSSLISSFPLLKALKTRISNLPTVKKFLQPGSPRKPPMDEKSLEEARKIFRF
Description: (§4) GST isozymes. […] The enzyme was incubated with 10 mM dithiothreitol to ensure complete reduction of cysteine residues, followed by extensive dialysis to remove the reducing agent. […] Plasmodium GST (pGST) was a gift from Dr. Katja Becker (Justus Liebig University of Giessen), and murine GSTP and GSTA were gifts from Dr. Dave Eaton (University of Washington). Except where otherwise stated (i.e. testing of pGST in Example 6.4.5 and testing of murine GSTs in Example 6.4.7), GST isozymes tested were from human.
(§5) GST assays. Assays of GST activity and inhibition were performed with chloro-2,4-dinitrobenzene (CDNB) as the electrophilic substrate. Except where otherwise stated, GST concentration was 20 nM. […] Rates were determined by measuring absorption at 340 nm (λmax of glutathione-dinitrobenzene) for 1 minute on a Beckman DU 7400 spectrophotometer. For IC50 determinations, assays were performed at inhibitor concentrations ranging over at least […] (from 100-fold above the IC50 to 100-fold below). Data were fit to a sigmoidal dose-response function using GraphPad Prism to determine the 50% inhibitory concentration.

[4] = target: T2, human glutathione S-transferase P1-1 (GSTP1-1) (Homo sapiens, UniProt P09211); experiment: CDNB assay of GST activity and inhibition, GST P1-1; type: biochemical; details: first value of the cell GSTP1-1/GSTA1-1; CDNB assay, 20 nM GST
T2 construct: made in house; host or cells: E. coli
T2 sequence (P09211 2-210 limits assumed): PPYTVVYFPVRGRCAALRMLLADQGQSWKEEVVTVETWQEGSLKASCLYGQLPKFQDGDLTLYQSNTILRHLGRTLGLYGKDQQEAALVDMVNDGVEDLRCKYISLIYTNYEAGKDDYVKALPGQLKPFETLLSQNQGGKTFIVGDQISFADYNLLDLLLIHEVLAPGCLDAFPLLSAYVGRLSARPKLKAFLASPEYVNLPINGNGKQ
Description: as §4, §5

Plasmodium GST (pGST) = target: T3, Plasmodium GST (pGST) (Plasmodium falciparum, UniProt Q8ILQ7); experiment: CDNB assay, Plasmodium GST; type: biochemical
T3 construct: gift from Dr. Katja Becker (Justus Liebig University of Giessen)
T3 sequence (Q8ILQ7 1-211): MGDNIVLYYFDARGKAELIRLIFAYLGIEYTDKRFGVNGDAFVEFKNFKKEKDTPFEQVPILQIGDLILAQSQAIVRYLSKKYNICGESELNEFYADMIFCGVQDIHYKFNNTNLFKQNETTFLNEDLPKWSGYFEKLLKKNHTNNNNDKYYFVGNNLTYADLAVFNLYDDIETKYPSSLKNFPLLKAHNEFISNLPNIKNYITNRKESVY
Description: as §4, §5
The IC50 values for pGST were determined for the bivalent compounds from Tables III and IV using the CDNB assay.

[5] = target: T1, human glutathione S-transferase A1-1 (GSTA1-1); details: from the prior art (Ploemen et al.); cited from earlier work
GSTA1-1 = target: T4, GSTA1-1 (Homo sapiens, UniProt P08263); experiment: GSH conjugation assay, absorbance changes at 270 nm, GSTA1-1; type: biochemical; details: absorbance at 270 nm
T4 construct: made in house; host or cells: E. coli
T4 sequence (P08263 1-222): T1 sequence (P08263 1-222)
Text: (§6) Since EA is known to be enzymatically conjugated to GSH by GSTs, these bivalent inhibitors might be predicted to be potential substrates for GSTA1-1 or GSTP1-1, such that they would also be catalytically conjugated with GSH.

[6] = test system: human kidney 293 fibroblasts; experiment: IC50 of the bivalent inhibitor alone in the cell line; type: cell-based; details: +/−0.2 SD, read-out: IC50 of inhibitor for the cells
Description: as §1
Once the cells reached 80% confluency, the original media was removed and replaced with either (a) fresh media alone; (b) fresh media containing 1 uM hypericin (a porphyrin analogue employed in photodynamic cancer therapy), (c) the desired concentration of GST inhibitor IVg^, and (d) 1 μM hypericin plus the inhibitor 1 μM IVg^. The cells were incubated for a further 24 hours, in the dark, to allow the hypericin to be incorporated. The media from each plate was then removed and placed into a corresponding 15 ml centrifuge tube. This media is saved to monitor the “floater” cells that may have sloughed off during manipulations and treatment. The attached cells were washed two times with 1×PBS and fresh media is added back to the plates. The plates which were incubated overnight in the presence of hypericin were overlayed with DMEM without the phenol red indicator dye or 1×PBS supplemented with 10% FBS.
as §3

[7] = test system: chloroquine resistant Plasmodium falciparum strain Dd2; experiment: Parasite growth inhibition, ring stages, 48 hours; type: cell-based; details: single dose, strain Dd2, 48 hours
Description: (§7) A single dose of compound IVg^ was added to ring stages of chloroquine resistant Plasmodium falciparum strain Dd2 and incubated for 48 hours. […] An isobologram analysis was performed in two different chloroquine resistant parasites comparing IVg^ with chloroquine (AN143 with a PNG/South America genotype and INDO21 with the Indonesia genotype).

murine GSTP = target: T5, murine GSTP (Mus musculus, UniProt P19157); experiment: CDNB assay, murine GSTP; type: biochemical
T5 construct: gift from Dr. Dave Eaton (University of Washington)
T5 sequence (P19157 2-210 limits assumed): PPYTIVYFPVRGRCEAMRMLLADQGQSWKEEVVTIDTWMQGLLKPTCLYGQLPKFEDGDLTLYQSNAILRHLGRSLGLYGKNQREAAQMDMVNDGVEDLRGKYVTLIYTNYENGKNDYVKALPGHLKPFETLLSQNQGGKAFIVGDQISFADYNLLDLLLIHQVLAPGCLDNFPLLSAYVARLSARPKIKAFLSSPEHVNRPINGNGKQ
Description: as §4, §5

[8] = test system: chloroquine resistant parasites AN143 and INDO21; experiment: Isobologram analysis with chloroquine; type: cell-based, Plasmodium falciparum
Description: as §7

GSTP1-1 = target: T6, GSTP1-1 (Homo sapiens, UniProt P09211); experiment: GSH conjugation assay, absorbance changes at 270 nm, GSTP1-1; type: biochemical; details: absorbance at 270 nm
T6 construct: made in house; host or cells: E. coli
T6 sequence (P09211 2-210 limits assumed): as the sequence (P09211 2-210 limits assumed) above
Text: as §6

[9] = 1 uM hypericin + 590 nm light, no inhibitor
[10] = 1 μM inhibitor + 1 μM hypericin + 590 nm light
[11] = CDNB assay, read-out: IC50 pGST

Structure (SMILES) | IC50 [3] [nM] | IC50 [4] [nM] | also measured
Cc1cc(O)c2c(=O)c3c(O)cc(O)c4c5c(O)cc(O)c6c(=O)c7c(O)cc(C)c8c1c2c(c34)c(c78)c65 [hypericin, reference compound] |  |  | Mean % Cell Death [1, 9]: 24.63%; Mean % Cell Death [2, 9]: 11.27%
C=C(CC)C(=O)c1ccc(OCC(=O)NCCCC(=O)NCCCC(=O)NCCCC(=O)NCc2cc(CNC(=O)CCCNC(=O)CCCNC(=O)CCCNC(=O)COc3ccc(C(=O)C(=C)CC)c(Cl)c3Cl)cc(C(N)=O)c2)c(Cl)c1Cl [IVi] | 96.5 | 142 | IC50 (Plasmodium GST (pGST)): ~5500 nM
C=C(CC)C(=O)c1ccc(OCC(=O)O)c(Cl)c1Cl [IVk*, ethacrynic acid, reference compound] |  |  | IC50 [5]: 5000 nM; GSH conjugation by GSTA1-1 (GSTA1-1): readily conjugated to GSH
C=C(CC)C(=O)c1ccc(OCC(=O)NCCCCCC(=O)NCc2cccc(CNC(=O)CCCCCNC(=O)COc3ccc(C(=O)C(=C)CC)c(Cl)c3Cl)c2)c(Cl)c1Cl [IVg^] | 64 | 27 | IC50 [6]: 1130 nM; Mean % Cell Death [1, 10]: 20.27%; EC50 [7]: 412 nM; Mean % Cell Death [2, 10]: 22.53%; IC50 (murine GSTP): 18 nM; synergy with chloroquine [8]: No evidence of synergy; IC50 (Plasmodium GST (pGST); [11]): ~1500 nM
NC(=O)c1cc(CNC(=O)CNCCS(=O)(=O)c2cccc(Nc3cc(S(=O)(=O)O)c(N)c4c3C(=O)c3ccccc3C4=O)c2)cc(CNC(=O)CNCCS(=O)(=O)c2cccc(Nc3cc(S(=O)(=O)O)c(N)c4c3C(=O)c3ccccc3C4=O)c2)c1 [IIIf] | > 1000 | 437 | 

More lines, main results first:

IC50 [3] [nM] | IC50 [4] [nM] | Structure (SMILES) | also measured
40.2 | 46.1 | C=C(CC)C(=O)c1ccc(OCC(=O)NCCCCCC(=O)NCc2cc(CNC(=O)CCCCCNC(=O)COc3ccc(C(=O)C(=C)CC)c(Cl)c3Cl)cc(C(N)=O)c2)c(Cl)c1Cl [IVg] | GSH conjugation by GSTP1-1 (GSTP1-1): no GSH conjugation; GSH conjugation by GSTA1-1 (GSTA1-1): no GSH conjugation; IC50 (Plasmodium GST (pGST); [11]): ~3300 nM
25 | 995 | C=C(CC)C(=O)c1ccc(OCC(=O)NCc2cccc(CNC(=O)COc3ccc(C(=O)C(=C)CC)c(Cl)c3Cl)c2)c(Cl)c1Cl [IVc^] | IC50 (murine GSTP): 990 nM
3800 | 3800 | COC(=O)CCCCCCCSCC(NC(=O)CCC(N)C(=O)O)C(=O)NCC(=O)O (centres unmarked) [If*, reference compound] | 
340 | 300 | NC(CCC(=O)NC(CSCCCCCCCCCOC(=O)CCCCCCCSCC(NC(=O)CCC(N)C(=O)O)C(=O)NCC(=O)O)C(=O)NCC(=O)O)C(=O)O (centres unmarked) [Ib] | 
23 | 634 | C=C(CC)C(=O)c1ccc(OCC(=O)NCC(=O)NCc2cc(CNC(=O)CNC(=O)COc3ccc(C(=O)C(=C)CC)c(Cl)c3Cl)cc(C(N)=O)c2)c(Cl)c1Cl [IVd] | 
